From paper PMC6609550, “Blockade of the forward Na^+/Ca^2+ exchanger suppresses the growth of glioblastoma cells through Ca^2+‐mediated cell death” (British Journal of Pharmacology, 2019) come the findings set out here.

Common to all, as to type: cell-based, Human
In test [1] the test system is [Ca^2+]i in U87 cells. Briefly: Ca2+ imaging (Fluo-4 AM) of U87 cells. Conditions: BAPTA‐AM 20 μM for 2 hr before perfusion. As for the experimental part: Cells were cultured in 96‐well plates at 8 × 10^3 per well and loaded with the cell membrane‐permeable Ca^2+ dye Fluo‐4 AM (5 μM) in 100‐μl HEPES‐buffered solution for 50 min. The solution contained (mM): 135 NaCl, 3 KCl, 2 CaCl2, 1 MgCl2, 10 glucose, and 10 HEPES, supplemented with 1% FBS at pH 7.4. To prepare the Ca^2+‐free solution, 2‐mM CaCl2 was replaced with 1‐mM EGTA in the HEPES‐buffered solution. The 96‐well plate containing the Fluo‐4 AM‐loaded cells was mounted in a Leica TCS SP8 confocal system (Leica Microsystems, Wetzlar, Germany). The confocal microscope armed with 488‐nm laser light was employed to excite the dynamic fluorescent signals in time and synchronously, while test regents were added to cells. To do Na^+ imaging, Fluo‐4 AM was replaced with the cell membrane‐permeable Na^+ dye Asante NaTrium Green‐2 AM (ANG‐2 AM) at 5 μM, which was excited by 514‐nm laser light. Visual inspection and fluorescent imaging were carried out at room temperature. The imaging data were analysed with the software https://leica-las-af-lite.software.informer.com/ 2.5 (Leica). The imaging traces shown are representative of at least three separate experiments; 12–18 cells were imaged in each experiment.

In test [2] the test system is U87 cells. Briefly: Cell cycle assay (PI staining, flow cytometry) of U87 cells. As for the experimental part: (§1) U87 cells were seeded in six‐well plates (Corning, Corning, NY, USA) with 1 × 10^6 cells per well and treated with NCX blockers, BAPTA‐AM, or MAPK inhibitors. Drug treatment was performed by the person who is blinded to the experimental groups. After treatment, cells were harvested in 15‐ml tubes and washed with cold sterile PBS. After being centrifuged, cells were fixed with 70% ethanol […] at 4°C for at least 1 hr. For propidium iodide (PI) staining, cells were washed one time with PBS and then were treated with ribonuclease A (RNase; 100 μg·ml^−1) for 30 min. PI (10 μg·ml^−1) was added, and stained cells were kept in the dark at 4°C until analysis. The number of cells analysed for each sample was 10,000 events. FACS analysis was performed using the Coulter CytoFlexS flow cytometer (Beckman Coulter, CA, USA), and the percentage of cells in the G0/G1, S, and G2/M phases was determined using cell cycle analysis software, ModFit LT 5.0 (Verity Software House, Topsham, ME, USA). For the apoptosis assay, cells were harvested and washed twice with cold PBS and resuspended at a density of 1 × 10^6 cells·ml^−1 in 100 μl of binding buffer containing 5 μl of Annexin V–FITC and 5 μl of PI working solution (100 μg·ml^−1). After incubation at room temperature for 15 min in the dark, 400 μl of binding buffer was added to each sample. Apoptosis was analysed by Coulter CytoFlexS flow cytometer (Beckman Coulter) for at least 10,000 events, and data were analysed with the software, CyExpert 2.0 (Beckman Coulter).

For test [3], the system named is U87 cells. The test can be described thus: Annexin V–FITC/PI apoptosis assay of U87 cells. As for the experimental part: as §1
Test [4] has as its system p38‐MAPK. The test can be described thus: Western blot of phosphorylated and total p38-MAPK in U87 cells. Conditions: BAPTA‐AM 10 μM 18 hr then bepridil 25 μM 30 min. As for the experimental part: (§2) After treatment with bepridil for 0, 30, 60, and 90 min, cells were collected and lysed in RIPA buffer (Beyotime, Nanjing, China) supplemented with protease inhibitor (Beyotime). The total protein concentration of each sample was determined using the BCA Protein Assay Kit (Sangon Biotech, Shanghai, China). Equal protein extracts (45‐μg protein per lane) were separated by SDS‐PAGE and electrophoretically transferred to PVDF membranes (Millipore, Bedford, MA, USA). Then, the membranes were incubated with anti‐phosphorylated and total http://www.guidetopharmacology.org/GRAC/FamilyDisplayForward?familyId=514, http://www.guidetopharmacology.org/GRAC/FamilyDisplayForward?familyId=518, and http://www.guidetopharmacology.org/GRAC/FamilyDisplayForward?familyId=519 antibodies (1:1,000; Cell Signaling Technology) at 4°C overnight, followed by incubation with IRDye 680LT fluorescent secondary antibody (LI‐COR Biosciences, Lincoln, NE, USA). Proteins were visualized using the Odyssey Fc Imaging System (LI‐COR Biosciences, Lincoln, NE, USA). Mouse α‐tubulin antibody was used as protein loading controls. The immuno‐related procedures used comply with the recommendations made by the British Journal of Pharmacology (Alexander et al., 2018).
For orientation: Immunoblotting shows a protein as a band on a membrane.

For test [5], the system named is JNK. Briefly: Western blot of phosphorylated and total JNK in U87 cells. The conditions noted are these: BAPTA‐AM 10 μM 18 hr then bepridil 25 μM 30 min. As for the experimental part:
as §2

Setting [6] is: BAPTA‐AM 10 μM 18 hours then CB‐DMB 3.5 μM 18 hours.

The structures appear in SMILES notation.

Regarding `CC(=O)OCOC(=O)CN(CC(=O)OCOC(C)=O)c1ccccc1OCCOc1ccccc1N(CC(=O)OCOC(C)=O)CC(=O)OCOC(C)=O` [BAPTA‐AM, 1,2‐bis(2‐aminophenoxy)ethane‐N,N,N′,N′‐tetraacetic acid tetrakis (acetoxymethyl ester)], the “Effect of pretreatment on the influence of bepridil and KB‐R7943 on [Ca2+]i” value in test [1] is given as “completely abrogated”. Moreover, the “Effect on CB-DMB-induced cell cycle arrest” value in test [2] (setting [6]) was “significantly attenuated”. Moreover, the “Effect on KB-R7943-induced G0/G1 arrest” value in test [2] (BAPTA‐AM 10 μM + KB‐R7943 25 μM, 18 hr) was “not rescued”. For the same compound, in test [2] (bepridil 25 μM 18 hr, pretreatment BAPTA‐AM 10 μM, CC‐930 10 μM or PD169316 10 μM), the “Effect on bepridil-induced G0/G1 cell cycle arrest” value is listed as “significantly attenuated”. Also, the “Effect on CB-DMB-induced apoptosis” value in test [3] (setting [6]) is “significantly suppressed”. Moreover, the “Effect on KB-R7943-induced apoptosis” value in test [3] (BAPTA‐AM 10 μM + KB‐R7943 25 μM, 20 hr) is reported as “not attenuated”. The “Effect on bepridil-induced apoptosis” value in test [3] (bepridil 25 μM 24 hr, pretreatment BAPTA‐AM 10 μM, CC‐930 10 μM or PD169316 10 μM) is given as “significantly attenuated”. In addition, the “Effect on bepridil-induced p38-MAPK activation” value in test [4] is “attenuated”. In test [5], the “Effect on bepridil-induced JNK activation” value was “attenuated”.
